What all share (experiment): in vitro
For one data set, the target named is T1, UGT1A1 (Homo sapiens, UniProt P22309).
T1 sequence (P22309 26-533): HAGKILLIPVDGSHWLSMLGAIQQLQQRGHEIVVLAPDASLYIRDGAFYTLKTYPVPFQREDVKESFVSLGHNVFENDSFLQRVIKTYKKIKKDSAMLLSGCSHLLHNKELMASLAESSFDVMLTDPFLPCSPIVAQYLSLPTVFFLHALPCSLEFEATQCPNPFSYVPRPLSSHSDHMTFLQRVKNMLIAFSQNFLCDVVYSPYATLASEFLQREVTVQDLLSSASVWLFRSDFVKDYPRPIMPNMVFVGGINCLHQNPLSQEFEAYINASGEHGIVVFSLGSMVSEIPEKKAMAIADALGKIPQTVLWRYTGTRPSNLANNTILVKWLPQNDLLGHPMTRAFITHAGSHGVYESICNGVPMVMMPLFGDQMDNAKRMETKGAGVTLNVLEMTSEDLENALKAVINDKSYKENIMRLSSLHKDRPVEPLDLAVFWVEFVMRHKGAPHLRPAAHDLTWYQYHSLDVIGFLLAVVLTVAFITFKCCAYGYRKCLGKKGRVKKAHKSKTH
The note with it: recombinant enzyme, pH 7.4. Here is the method: (§1) Experimental Summary: UGT Reaction Phenotyping (7 Isoforms).
(§2) Experimental Procedure: cDNA expressed human UGT enzyme preparations (Supersomes) supplied by BD Biosciences were obtained and stored at −80° C. prior to use. The specific isoforms were chosen by the performing laboratory based on published guidelines. They are considered the clinically relevant of the UGT isoforms (E. Kasteel et al. Human variability in isoform-specific UDP-glucuronosyltransferases: markers of acute and chronic exposure, polymorphisms and uncertainty factors. Arch Toxicol. 2020; 94(8): 2637-2661)
(§3) Supersomes in 0.1 M Tris buffer pH 7.4, alamethicin (44.6 μg/mL) and test compound (final concentration of 5 μM; final DMSO concentration ≤0.1%) were pre-incubated at 37° C. prior to the addition of UDGPA (final concentration 2 mM) to initiate the reaction. Incubations were also performed using control Supersomes (no UGT enzymes present) to reveal any non-enzymatic degradation. Compounds known to be metabolized specifically by each UGT isoform were used as control compounds (7-hydroxy-4-trifluoromethylcoumarin, all but UGT1A4, or trifluoperazine for UGT1A4).
(§4) CBG or Compound 1 were incubated in duplicate for 0, 10, 20, 40 and 60 min with each isoform. The reactions were stopped by the addition of methanol containing an analytical internal standard at the time points specified in the table above. Stopped reactions were kept on ice for at least ten minutes and the samples were centrifuged to remove precipitated protein. Supernatants were analyzed by LC-MS/MS methodology developed by the performing laboratory to quantitate the parent remaining.
(§5) The change in CBG concentration were used to calculate the Half life (t1/2 in min) and the intrinsic clearance ([…]) as shown in the following table (S. C, Khojasteh et.al., Drug Metabolism and Pharmacokinetics Quick Guide, Springer, NY, 2011), Intrinsic Clearance (CIint) is a measure of the ability of hepatocytes to eliminate drug irrespective other factors such as blood flow or protein binding. The calculations were the same as those used in Example 3A.

In the next data set the target is T2, UGT1A9 (Homo sapiens, UniProt O60656).
T2 sequence (O60656 26-530): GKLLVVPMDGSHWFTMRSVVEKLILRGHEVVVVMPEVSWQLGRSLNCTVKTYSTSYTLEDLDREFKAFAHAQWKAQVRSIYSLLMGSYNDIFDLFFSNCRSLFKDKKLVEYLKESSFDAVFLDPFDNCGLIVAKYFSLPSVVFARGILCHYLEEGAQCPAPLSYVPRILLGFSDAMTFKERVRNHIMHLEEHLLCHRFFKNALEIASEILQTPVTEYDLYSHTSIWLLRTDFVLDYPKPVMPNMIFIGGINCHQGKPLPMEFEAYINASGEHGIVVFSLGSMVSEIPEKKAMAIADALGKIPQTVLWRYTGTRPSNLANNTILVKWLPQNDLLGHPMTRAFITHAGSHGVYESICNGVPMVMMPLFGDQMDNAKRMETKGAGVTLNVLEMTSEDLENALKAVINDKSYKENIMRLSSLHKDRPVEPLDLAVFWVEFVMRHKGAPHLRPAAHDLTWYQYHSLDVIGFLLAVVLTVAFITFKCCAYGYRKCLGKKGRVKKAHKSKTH
The note with it: pH 7.4; for half-life at 1 µM / microsomal CLint at 1 µM: recombinant enzyme. Here is the method: as §1, §2, §3, §4, §5

Another data set deals with T3, UGT2B7 (Homo sapiens, UniProt P16662).
T3 sequence (P16662 24-529): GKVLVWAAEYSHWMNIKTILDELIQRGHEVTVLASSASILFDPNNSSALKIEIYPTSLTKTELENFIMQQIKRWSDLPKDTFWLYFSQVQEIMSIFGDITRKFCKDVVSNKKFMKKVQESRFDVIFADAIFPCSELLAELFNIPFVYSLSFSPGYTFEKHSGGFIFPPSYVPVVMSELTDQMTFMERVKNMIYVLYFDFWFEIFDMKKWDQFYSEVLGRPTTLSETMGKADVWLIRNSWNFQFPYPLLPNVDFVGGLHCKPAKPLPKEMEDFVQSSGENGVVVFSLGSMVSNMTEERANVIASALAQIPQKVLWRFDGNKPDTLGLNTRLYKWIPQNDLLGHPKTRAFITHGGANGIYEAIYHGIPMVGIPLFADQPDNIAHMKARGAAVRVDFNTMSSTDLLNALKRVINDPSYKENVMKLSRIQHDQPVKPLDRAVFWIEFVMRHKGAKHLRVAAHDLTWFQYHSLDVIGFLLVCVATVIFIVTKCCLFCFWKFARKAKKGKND
Conditions: for half-life at 1 µM / microsomal CLint at 1 µM: human, recombinant enzyme, pH 7.4. As for the experimental part:
as §1, §2, §3, §4, §5

As a reminder, the half-life is the time in which the quantity being followed falls by half. For orientation: microsomal CLint means the rate of metabolic loss divided by the concentration. Regarding `O=c1cc(C(F)(F)F)c2ccc(O)cc2o1` [7-OH4trifluoromethylcoumarin, 7-hydroxy-4-trifluoromethylcoumarin], the half-life at 1 µM at UGT1A1 is 33.1 min; on UGT1A9 it was 3.04 min; at UGT2B7 it was 50.4 min. Besides, the values for the microsomal CLint at 1 µM on UGT1A1, at UGT1A9 and on UGT2B7 were 41.8 µL/min/mg, 456 µL/min/mg and 27.5 µL/min/mg, respectively.
Regarding `CCCCCc1cc(O)c(C/C=C(\C)CCC=C(C)C)c(O)c1` [CBG, cannabigerol], the half-life at 1 µM on UGT1A1 amounted to 77.1 min; on UGT1A9, 1.92 min; on UGT2B7, 17.9 min. Further, the microsomal CLint at 1 µM on UGT1A1 is 18 µL/min/mg; at UGT1A9 it was 721 µL/min/mg; on UGT2B7 it was 77.5 µL/min/mg. Also, the “share of UGT1A9 in the activity with CBG for all the UGTs combined” value at UGT1A9 (5 µM) was around 80%. The “activity of UGT2B7 relative to UGT1A9” value at UGT2B7 (CBG as substrate) is recorded as “approximately 1/10”.
`CCCCCc1cc(O)c(C/C=C(\C)CCC=C(C)C)c(OC)c1` [Compound 1, (E)-2-(3,7-dimethylocta-2,6-dien-1-yl)-3-methoxy-5-pentylphenol]: the half-life at 1 µM at UGT1A1 amounted to 103 min; on UGT1A9, 14 min; on UGT2B7, 24.8 min. Further, the microsomal CLint at 1 µM came out at 13.5 µL/min/mg at UGT1A1, 99.1 µL/min/mg on UGT1A9 and 55.9 µL/min/mg on UGT2B7.

The values are drawn from patent publication US11992497B2 (priority 2021, dated 2024).
